Laboratory results: article PMC3561256, “Anti-infectious and anti-inflammatory effects of peptide fragments sequentially derived from the antimicrobial peptide centrocin 1 isolated from the green sea urchin, Strongylocentrotus droebachiensis” (AMB Express, 2012)
Values joined by “and” are separate entries in the source; they are usually repeats but may differ in a detail not shown here. Equal values may be shown once. No end group written: not given here.

Assays:
[1] = system: S. aureus (ATCC 12600); test: Minimal microbicidal concentration (MMC99) assay; type: cell-based, Staphylococcus aureus
Procedure: (§1) All the synthesised peptides were tested for their in vitro microbicidal activity against S. aureus (American Type Culture Collection (ATCC) 12600) and P. aeruginosa (ATCC 15442) using a minimal microbicidal concentration (MMC) assay as previously described (Haversen et al. [2010]). Bacteria were cultured in 3.7% brain heart infusion (BHI) broth (Difco, BD Diagnostics, Franklin Lakes, NJ) on a shaker at 250 rpm overnight at 37°C. The culture was diluted 1:10 in fresh 3.7% BHI and incubated for two additional hours to reach log-phase growth. The bacteria were pelleted by centrifugation at 900 × g and suspended in 0.037% BHI to a concentration of 10^7 CFU/mL, estimated by measuring optical density at 600 nm (OD600). To investigate the influence of physiological conditions on microbicidal effect of the peptides, four different assay media were used: 0.037% BHI, 0.037% BHI supplemented with 85 or 150 mM sodium chloride (NaCl), and 50% heat inactivated simulated wound fluid (h.i. SWF) composed of a 50:50 mixture of 0.1% peptone (Oxoid, Basingstoke, UK) in 150 mM NaCl and fetal bovine serum (FBS; PAA Laboratories GmbH, Pasching, Austria), diluted two times in ultra pure water. The peptides were serially diluted by twofold steps from 200 to 1.56 mg/L in the assay media used, and 100 μL of the peptide solutions were mixed with 5 μL bacterial suspensions in a 96 well plate (Nunc, Roskilde, Denmark) and incubated at 37°C for two hours. An aliquot of 5 μL from each well was aspirated and added as drops onto blood agar plates (Columbia agar; Oxoid, Basingstoke, UK) supplemented with 5% defibrinated horse blood (Swedish National Veterinary Institute (SVA), Uppsala, Sweden), and the plates were incubated overnight at 37°C. All samples were processed as duplicates. The minimal test compound concentration causing ≥99% reduction of bacteria was defined as the MMC99. The concentration of the bacterial suspension used in the assay was confirmed by viable count estimation on blood agar plates (Oxoid).
(§2) CEN1 HC was further screened for microbicidal activity against a panel of microbial strains using the MMC99 assay, as described above, except using only two different assay media; 0.037% BHI and 50% h.i. SWF. The following microbial strains were tested for sensitivity: S. aureus (ATCC 12600), MRSA (ATCC 33591), Staphylococcus epidermidis (ATCC 12228), Streptococcus pyogenes (ATCC 12344), Propionibacterium acnes (ATCC 6919) Escherichia coli (ATCC 11775), P. aeruginosa (ATCC 15442), Klebsiella pneumoniae (Culture collection, University of Gothenburg (CCUG) 59413, clinical isolate resistant to penicillins, cephalosporins, aztreonam and carbapenems, with the reference strain ATCC 13883), Acinetobacter baumannii (CCUG 58437, clinical isolate resistant to tobramycin, trimsulfa, ciprofloxacin, cefotaxim, ceftazidim, meropenem, pipera/tazobactam, with the reference strain ATCC 19606) and the yeast strain Candida albicans (ATCC 64549). Mupirocin (GlaxoSmithKline) and fusidic acid (LEO Pharma) were used as comparative control antibiotics.

[2] = system: P. aeruginosa (ATCC 15442); test: Minimal microbicidal concentration (MMC99) assay; type: cell-based, Pseudomonas aeruginosa
Procedure: as §1, §2

[3] = system: TNF-α secretion from THP-1 cells; test: Inhibition of TNF-α secretion from LPS-stimulated THP-1 derived macrophages (ELISA); type: cell-based, human; conditions: PMA-differentiated THP-1 cells, LPS 0.1 ng/mL, peptide added 30 min after LPS, 6 h, triplicate, IC50 ± SEM, 4-parameter fit (Origin)
Procedure: The human monocytic cell line THP-1 (ATCC TIB-202) was cultured in RPMI 1640 medium (PAA Laboratories GmbH) supplemented with 10% FBS (PAA Laboratories GmbH), 1 mM sodium pyruvate (Sigma-Aldrich, St. Louis, MO), and 20 mM 4-(2-hydroxyethyl)-1-piperazineethanesulfonic acid (HEPES; PAA Laboratories GmbH). The cell density was adjusted to 10^6 cells/mL and 100 μL of the cell suspension was added to each well of 96 well plates (Sarstedt, Nümbrecht, Germany). The cells were treated with 10 ng/mL phorbol 12-myristate 13-acetate (PMA; Sigma-Aldrich) to differentiate the monocytes into macrophage-like cells. After 48 h, the cells were stimulated by adding 0.1 ng/mL LPS into the medium specified above, except that 10% FBS was replaced with 5% h.i. FBS. The LPS concentration used was selected based on in vitro titration experiments to give a close to maximum release of cytokines into the cell culture medium over a period of six hours (data not shown). The indicated concentrations of the peptides were added 30 min after addition of LPS. After six hours of incubation, the plates were centrifuged for six minutes at 400 × g and the supernatants were collected and kept frozen at −20°C until analysed for TNF-α and IL-6 production. The cytokine levels were analysed using enzyme-linked immunosorbent assay (ELISA; R&D Systems, Minneapolis, MN).

[4] = synthesis and antimicrobial testing of the different monomers; ref Li et al. [2010]; cited from earlier work
Text: Invertebrates are proving to be a rich source of AMPs, possibly because of their more pronounced reliance on innate immune functions in their defence against microbial pathogens compared to vertebrates. Many of the peptides isolated from marine species are structurally unique, display significant biological activities and are therefore expected to be useful drug leads (Sperstad et al. [2011]). In a previous study, we detected broad-spectrum antibacterial activity in coelomocyte (blood cell) extracts of the green sea urchin, S. droebachiensis (Haug et al. [2002]). Subsequently, an AMP named cen ...

[5] = system: MRSA (ATCC 33591); type: in vivo; conditions: rat excision wound model (MRSA or P. aeruginosa infected), topical application, experimental period
Text: The ability of CEN1 HC and CEN1 HC (Ser) to reduce bacterial counts was estimated in an excision wound model in rat designed based on previously published studies (Gisby and Bryant [2000]; McRipley and Whitney [1976]; Rittenhouse et al. [2006]; Saymen et al. [1972]). Briefly, female Sprague–Dawley rats (200–250 g, Charles River Laboratories, Sulzfeldt, Germany) were housed at the Laboratory of Experimental Biomedicine, Gothenburg, Sweden. They were kept in a 12-h light–dark cycle and were cared for in accordance with regulations for the protection of laboratory animals. All animal experiments were performed after prior approval from the local Ethics Committee for Animal Studies at the Administrative Court of Appeals in Gothenburg, Sweden. The rats were acclimatised in cages for a minimum of five days before surgery, with four rats in each cage. They had free access to water and pellets (Lab For, Lantmännen, Sweden). The rats were anaesthetised during the whole experiment and the anaesthesia was induced by an intra-peritoneal injection of a mixture of fentanyl (272 μg/kg; B. Braun Melsungen AG, Melsungen, Germany) and medetomidine hydrochloride (545 μg/kg; Domitor, Orion Pharma Animal Health AB, Sollentuna, Sweden). The backs of the rats were shaved and swabbed with 70% chlorhexidine alcohol (Fresenius Kabi AB, Uppsala, Sweden). […] Plates containing 30–300 CFU were counted. […]

[6] = Table 2 screen, medium 0.037% BHI + 85 mM NaCl, 2 h at 37°C, up to 200 mg/L, duplicates, maximum of at least two independent experiments
[7] = Table 2 screen, medium 0.037% BHI + 150 mM NaCl, 2 h at 37°C, up to 200 mg/L, duplicates, maximum of at least two independent experiments
[8] = Table 2 screen, medium 50% heat inactivated simulated wound fluid, 2 h at 37°C, up to 200 mg/L, duplicates, maximum of at least two independent experiments

## GW(Br)FKKTFHKVSHAVKSGIHAGQRGCSALGF [CEN1 HC-Br, heavy chain of centrocin 1, 30 residues, brominated tryptophan in position 2]
[1]; [6]
  S. aureus MMC99, 0.037% BHI + 85 mM NaCl: 25 mg/L
[1]; [7]
  S. aureus MMC99, 0.037% BHI + 150 mM NaCl: 50 mg/L
[1]; Table 2 screen, medium 0.037% BHI, ≥99% reduction of bacteria, 2 h at 37°C, tested up to 200 mg/L, duplicates, maximum value from at least two independent experiments
  S. aureus MMC99, 0.037% BHI: 25 mg/L
[1]; [8]
  S. aureus MMC99, 50% SWF: 25.0 to 50.0 mg/L and 50 mg/L
[1]; text summary over both NaCl concentrations of Table 2a
  S. aureus MMC99, 0.037% BHI with 85 mM or 150 mM NaCl: 25.0 to 50.0 mg/L
[2]; [6]
  P. aeruginosa MMC99, 0.037% BHI + 85 mM NaCl: 12.5 mg/L
[2]; [7]
  P. aeruginosa MMC99, 0.037% BHI + 150 mM NaCl: 25 mg/L
[2]; Table 2 screen, medium 0.037% BHI, 2 h at 37°C, up to 200 mg/L, duplicates, maximum of at least two independent experiments
  P. aeruginosa MMC99, 0.037% BHI: 25 mg/L
[2]; [8]
  P. aeruginosa MMC99, 50% SWF: 100.0 mg/L and 100 mg/L
[2]; text summary over both NaCl concentrations of Table 2b, compared to 0.037% BHI only
  P. aeruginosa MMC99, 0.037% BHI with 85 mM or 150 mM NaCl: no reduction in effect
[3]
  IC50, TNF-α secretion: ~4.0 mg/L
[4]
  Antimicrobial activity of the synthesised monomers of centrocin 1: equally active as the original dimeric peptide

## GWFKKTFHKVSHAVKSGIHAGQRGCSALGF [CEN1 HC]
[5]
  Animal death or local reactions in connection to the application of the test article: No animal death or local reactions
